In US9480695B2, “Methods for inducing orexin neurons and agent for treating narcolepsy or eating disorder” (THE UNIVERSITY OF TOKYO, priority 2011, dated 2016):

What was measured:
Assay type in all cases: cell-based
[1] = tested on: Mouse ES cells (J1 strain); experiment: Hcrt expression with ManNAc plus Sirt inhibitor or Ogt inhibitor, neural differentiation from mouse ES cell, RT-PCR; conditions: ManNAc 1.0 mM from 0th day, BADGP 1 mM or 5 mM on 7th day, collected 10th day; FIG. 9
Protocol: According to the same manner as that described in Example 1, mouse ES cells (J1 strain) were cultured for 10 days for differentiation induction into a nerve cell. A protocol of inducing differentiation into a nerve cell is shown in the upper column of FIG. 11. From the initiation of differentiation culturing (0th day), ManNAc was added to a neural differentiation medium so that the concentration became 1.0 mM, and the medium was exchanged on 4th and 7th days of differentiation culturing. In addition, from 4th day of differentiation culturing, 5 nM recombinant human BMP4 (Wako) was added. On 7th day of differentiation culturing, EX-527 (SIGMA-ALDRICH) was added to a neural differentiation medium so that the concentration became 50 nM or BADGP (SIGMA-ALDRICH) was added to a neural differentiation medium so that the concentration became 1 or 5 mM, and on 10th day of differentiation culturing, cells were collected and subjected to RT-PCR. The conditions of RT-PCR are the same as those of Example 1.

[2] = tested on: Mouse ES cells (J1 strain); experiment: Induction of Hcrt expression in neural differentiation from mouse ES cells, SDIA differentiation culture system, RT-PCR
Protocol: Mouse ES cells (J1 strain) which had been maintained in a medium for an ES cell [DMEM (Wako) added with 15% FBS (Biowest), 1 mM sodium pyruvate (Invitrogen), […] (Invitrogen), 2 mM L-glutamine (Invitrogen), 1 mM non essential amino acid (Invitrogen), 50 U/ml penicillin/50 μg/ml streptomycin (Invitrogen), 2000 U leukemia inhibitory factor (Chemicon, CA)] were seeded on a 10 cm culture dish so that the cell count became 1×10^5 cells per culture dish on which PA6 stromal cells had been seeded in advance, and differentiation induction was performed in a medium for neural differentiation [Glasgow MEM (Invitrogen) added with 10% KSR (Invitrogen), […] (Invitrogen), 1 mM non essential amino acid (Invitrogen), 50 U/ml penicillin/50 μg/ml streptomycin (Invitrogen)] for 10 days. On 4th and 7th days of differentiation culturing, the medium was exchanged. In addition, from 4th day of differentiation culturing, 5 nM recombinant human BMP4 (Wako) was added (FIG. 1). On 10th day of differentiation culturing, cells were collected and pelletized by a centrifugation operation to remove the culture medium. Thereafter, the pellets were immediately frozen in liquid nitrogen and stored at −80° C. until use.
The total RNA was extracted from the collected cells using RNeasy plus Mini Kit (QIAGEN). Then, a reverse transcription reaction was performed in a reaction liquid containing 1 μg of the total RNA, and Oligo (dT) using SuperScript III First Strand Synthesis System (Invitrogen) to synthesize a cDNA.
A PCR reaction was performed on a 10 μl scale, 1 U of LA-Taq DNA Polymerase (Takara) was added to 0.5 μl of a cDNA, 5 μl of 2×GC Buffer I, each 200 μM of dNTP, 1.5 mM MgCl2, and each primer having a final concentration of 0.2 μM, thermal denaturation was performed at 95° C. for 3 minutes, and the reaction was performed under the condition of (30 seconds at 95° C., 30 seconds at 55° C., and 30 seconds at 72° C.)×35 cycles (20 cycles in the case of Actb). The primers used are shown below.
Each PCR product was electrophoresed on a 2% agarose gel, stained with ethidium bromide, and a band was observed by UV irradiation.

[3] = tested on: human iPS cell strain 201B7; experiment: Hcrt expression with ManNAc plus Sirt inhibitor and Ogt inhibitor, neural differentiation from human iPS cell, RT-PCR; conditions: ManNAc 1.0 mM from 0th day, EX-527 50 nM and/or BADGP 5 mM on 14th day, collected 20th day; FIG. 10
Protocol: A human iPS cell strain 201B7 (HSP0001) was obtained from Riken BioResource Center via National BioResource Project (MEXT, Japan). The human iPS cell was maintained on a feeder layer of a mitomycin C-treated STO/Neo resistant/LIF (SNL) feeder cell in a primate ES medium (ReproCELL) complemented with 5 ng/mL recombinant human bFGF (Wako). The human iPS cell was co-cultured with PA6 for 20 days, for differentiation induction into a nerve with a SIDA and BMP4 system. From 7th day, 5 nM BMP4 was complemented. A detailed protocol of differentiation induction into a nerve cell is shown in the lower column of FIG. 11. From the initiation of differentiation culturing (0th day), ManNAc was added to a neural differentiation medium so that the concentration became 1.0 mM, and on 7th, 10th and 14th days of differentiation culturing, the medium was exchanged. In addition, from 7th day of differentiation culturing, 5 nM recombinant human BMP4 (Wako) was added. On 14th day of differentiation culturing, EX-527 (SIGMA-ALDRICH) was added to a neural differentiation medium so that the concentration became 50 nM, or BADGP (SIGMA-ALDRICH) was added to a neural differentiation medium so that the concentration became 5 mM, and on 20th day of differentiation culturing, cells were collected and subjected to RT-PCR. The conditions of RT-PCR are the same as those of Example 1.

[4] = tested on: human iPS cell strain 201B7; experiment: Orexin-positive cells in neurally differentiated colony induced from human iPS cell, immunostaining; conditions: differentiation as in Example 5; anti-human orexin antibody fluorescence
Protocol: Cells which had been differentiation-induced on a 4-well culture plate by the method described in Example 5 were fixed with a 4% paraformalin solution, and cellular membrane permeability treatment was performed with a 0.2% Triton-X100 solution. The cells were treated with a 5% bovine serum albumin solution, followed by treatment with a primary antibody (anti-human orexin antibody, anti-human tubulin III antibody) at 4° C. overnight. After a reaction with a secondary labeled antibody (Alex-Fluor 488-labeled donkey anti-goat antibody, Alexa-Fluor 594-labeled rabbit anti-mouse antibody), a nuclear DNA was stained with DAPI.

[5] = tested on: human-derived pluripotent stem cell; experiment: Hcrt expression in human-derived pluripotent stem cell (similar effect to Experiment 1); conditions: stated as similar to Experiment 1

Q: `CC(=O)N[C@@H]1C(O)O[C@H](CO)[C@@H](O)[C@@H]1O` (stereo partly drawn) [ManNAc, N-acetyl-D-mannosamine] was tested. Which “Expression of an orexin gene (Hcrt)” value [1] did it give?
A: The value was “expression of Hcrt which had been recognized in a ManNAc-added section”.

Q: What about the “Level of Hcrt expression by addition period” value ([2]; 1.0 mM ManNAc, added on 4th to 10th, 7th to 10th and 0th to 10th days versus 0th to 4th and 0th to 7th days) of the same molecule?
A: The value was “high expression was observed in the section in which ManNAc was added to a medium on and after 7th day of differentiation”.

Q: What about the “Expression of Hcrt with changed time of addition” value ([2]; 1.0 mM, addition time varied, FIG. 3) of the same molecule?
A: Its value is “expression of Hcrt was observed only in a ManNAc-added section at any addition time”.

Q: What about the “Expression of an orexin gene (Hcrt)” value ([2]; added from initiation of differentiation culturing at 0.2 and 1.0 mM, cells collected on 10th day, FIG. 2) of the same molecule?
A: Its value is “expression of Hcrt was recognized only in a ManNAc-added section”.

Q: What about the “Expression of an orexin gene (Hcrt)” value [3] of the same molecule?
A: The value was “recognized in a ManNAc-added section and an EX-527-added section to the same extent”.

Q: And the “ratio of orexin-positive cells in a neurally differentiated colony” value [4]?
A: Its value is 4.9%.

Q: What about the “Expression of Hcrt in a human-derived pluripotent stem cell” value [5] of the same molecule?
A: Its value is “a similar effect was obtained”.
